Reference: EP0643964A2 (priority 1993, dated 1995)

Legend:
M3 tumor = experiment: M3 transplanted mice, tumor area (lidocaine and epidoxorrubicine); assay type: in vivo
[1] = system: patient with an history of ulcerative colitis; experiment: Intravenous treatment of a patient with ulcerative colitis; assay type: in vivo, human
Giardia lamblia = experiment: Patients with malabsorption syndrome (MAS) caused by Giardia lamblia; assay type: in vivo, human
Source text: Volunteer # 1: Type II MAS with positive isolation of Giardia lamblia in duodenal washings and confirmation of the disease by histopathology. […] One month later, patient 1 presented symptoms and signs of recurrence of the disease, with positive isolation of parasites in feces.
Volunteer # 2: with diffuse abdominal pain, loss of body weight and steatorrhea.

[2] = system: P815 H-2^d mastocytoma cells; experiment: In vitro cell growth, P815 seeded petri dishes (Trypan blue count); assay type: cell-based
Description: EL4 h-2^b murine T-Lymphoma (2x10⁶ cells) and P815 H-2^d mastocytoma cells (2x10⁶ cells) (kindly provided by Prof. Gideon Berke at the Weizmann Institute of Sciences, Rehovot, Israel) suspended in 2 ml RPMI-HEPES supplemented with […] and 10% fetal calf serum (FCS) were seeded in every one of 10 petri dishes for each of five groups for the EL4 cells and two groups for the P815 cells. […] Group E dishes were co-cultivated with 0.1 ml RPMI-HEPES alone.
Petri dishes were incubated for 72 hours at 37°C in 5% CO₂ atmosphere. The cells harvested from the petri dishes were then centrifuged, diluted with 1% Trypan blue and counted on a Neubauer chamber.

[3] = system: patients with acute hemorraghic diarrhea; experiment: Intravenous treatment of patients with acute hemorrhagic diarrhea; assay type: in vivo, human
Description: Rectoscopies were performed in all patients immediately before treatment, 2 and 7 days later. Two (2) of the patients accepted to be biopsed at the moment of the first and second rectoscopies.

[4] = Volunteer # 2, day 7 post-treatment

Structure (SMILES): CCN(CC)CC(=O)Nc1c(C)cccc1C [lidocaine]
- Area (tumor) (M3 tumor; day 7 p-t (day 0), lidocaine 0.1 ml 0.05% every 7 days, epidoxorrubicine 0.125 ml 0.2% every 7 days, combination: lidocaine 2 days after epidoxorrubicine): 0.46
- I/Ø: Percentual increment over tumor in day 0 (day 7 p-t) (M3 tumor; day 10 p-t, saline control 103.47): 18.75%
- Area (tumor) (M3 tumor; day 12 p-t, regimens as Table 5 footnotes, saline control 1.56): 0.70
- I/Ø: Percentual increment over tumor in day 0 (day 7 p-t) (M3 tumor; day 12 p-t, saline control 245.61): 51.56%
- Area (tumor) (M3 tumor; day 14 p-t, regimens as Table 5 footnotes, saline control 2.06): 0.96
- I/Ø: Percentual increment over tumor in day 0 (day 7 p-t) (M3 tumor; day 14 p-t, saline control 357.57): 107.81%
- Area (tumor) (M3 tumor; day 16 p-t, regimens as Table 5 footnotes, saline control 2.78): 1.11
- I/Ø: Percentual increment over tumor in day 0 (day 7 p-t) (M3 tumor; day 16 p-t, saline control 516.74): 142.19%
- Area (tumor) (M3 tumor; day 18 p-t, regimens as Table 5 footnotes, saline control 3.61): 1.38
- Area (tumor) (M3 tumor; day 21 p-t, regimens as Table 5 footnotes, saline control 4.61): 1.93
- Area (tumor) (M3 tumor; day 23 p-t, regimens as Table 5 footnotes, saline control 5.49): 2.90
- Area (tumor) (M3 tumor; day 25 p-t, regimens as Table 5 footnotes, saline control 6.24): 3.57
- I/Ø: Percentual increment over tumor in day 0 (day 7 p-t) (M3 tumor; day 25 p-t, saline control 1286.33): 676.56%
- Diarrhea ([1]; 4 i.v. doses each 12 hours per week, 4 weeks (5 ml, 2% solution), during the treatment): diarrhea disappeared
- Colonoscopy ([1]; 5th week): congestive and edematous mucosa; no erosion could be observed
- histopathological diagnosis ([1]; biopsy, 5th week): quiescent ulcerative colitis
- D-xylose and Van der Kamer tests (Giardia lamblia; Volunteer # 1, five days later): normal values
- Enteric histopathological examination (Giardia lamblia; Volunteer # 1, five days later (type II MAS before)): type I MAS
- isolation of parasites in feces (Giardia lamblia; Volunteer # 1, i.v. twice a day 2 days, five days later): negative results
- All tests performed (Giardia lamblia; Volunteer # 1, thirty days later): normalization of enteric function with negative isolation of parasites
- D-xylose and Van der Kamer tests (Giardia lamblia; [4]): normal
- Symptoms (Giardia lamblia; [4]): asymptomatic
- microscopic examination of enteric mucosa (Giardia lamblia; Volunteer # 2, day 7 post-treatment (type II MAS before)): type I MAS
- Overall status (Giardia lamblia; Volunteer # 2, day 28 post-treatment): asymptomatic, with gain of weight, normal tests, negative isolation of parasites and a normalization of the microscopic aspect of the enteric mucosa
- isolation of parasites (Giardia lamblia; Volunteer # 2, i.v. twice a day 2 days (5 ml, 2%), day 7 post-treatment): negative results
- Alive Cells ± STD ([2]; Group A, 0.1 ml 0.005% lidocaine, 72 hours, control 4.66E+06): 3.77E+06 ± 0.11 millions of cells
- Dead cells ([2]; Group A, 0.1 ml 0.005% lidocaine, control 2.33E+06): 1.96E+06
- inhibition at 0.005 % ([2]; Mus musculus, P815, 72 h, read-out: I/C: Percentual increment over control growth): 19.1%
- Symptomatology ([3]; 4 patients, 5 ml 2% solution i.v. twice a day for 2 days, after 48 hours of treatment): abolishment of symptomatology
- Microscopic examination of mucosa ([3]; second biopsy (2 patients)): Slight chronic inflammatory process with indemnity of epithelium
- Rectoscopy ([3]; second rectoscopy, 2 days after start of treatment): congestive and edematous mucosa, without hemorrhages and erosions
- Rectoscopy ([3]; third rectoscopy, 7 days later): normal mucosa
